# Assay results from PubChem BioAssay (NCI).
#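 Five concentrations, 48 hours, 96-well plates. TGI is the concentration that stops growth completely.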
# What was measured:
# Assay in all cases: NCI tumour cell line growth inhibition, 48 h
# 786-0 renal = tested on: 786-0 renal
# A498 renal = tested on: A498 renal
# A549 NSCLC = tested on: A549 NSCLC
# ACHN renal = tested on: ACHN renal
# BT-549 breast = tested on: BT-549 breast
# CAKI-1 renal = tested on: CAKI-1 renal
# CCRF-CEM leukemia = tested on: CCRF-CEM leukemia
# COLO 205 colon = tested on: COLO 205 colon
# DU-145 prostate = tested on: DU-145 prostate
# EKVX NSCLC = tested on: EKVX NSCLC
# HCC-2998 colon = tested on: HCC-2998 colon
# HCT-116 colon = tested on: HCT-116 colon
# HCT-15 colon = tested on: HCT-15 colon
# HL-60(TB) leukemia = tested on: HL-60(TB) leukemia
# HOP-62 NSCLC = tested on: HOP-62 NSCLC
# HOP-92 NSCLC = tested on: HOP-92 NSCLC
# HS 578T breast = tested on: HS 578T breast
# HT29 colon = tested on: HT29 colon
# IGROV1 ovarian = tested on: IGROV1 ovarian
# K-562 leukemia = tested on: K-562 leukemia
# LOX IMVI melanoma = tested on: LOX IMVI melanoma
# M14 melanoma = tested on: M14 melanoma
# MALME-3M melanoma = tested on: MALME-3M melanoma
# MCF7 breast = tested on: MCF7 breast
# MDA-MB-231 breast = tested on: MDA-MB-231 breast
# MDA-MB-435 = tested on: MDA-MB-435
# MDA-N = tested on: MDA-N
# NCI-H226 lung = tested on: NCI-H226 lung
# NCI-H23 lung = tested on: NCI-H23 lung
# NCI-H460 lung = tested on: NCI-H460 lung
# NCI-H522 lung = tested on: NCI-H522 lung
# NCI/ADR-RES ovarian = tested on: NCI/ADR-RES ovarian
# OVCAR-3 ovarian = tested on: OVCAR-3 ovarian
# OVCAR-5 ovarian = tested on: OVCAR-5 ovarian
# OVCAR-8 ovarian = tested on: OVCAR-8 ovarian
# PC-3 prostate = tested on: PC-3 prostate
# RPMI-8226 leukemia = tested on: RPMI-8226 leukemia
# RXF 393 renal = tested on: RXF 393 renal
# SF-268 CNS = tested on: SF-268 CNS
# SF-295 CNS = tested on: SF-295 CNS
# SF-539 CNS = tested on: SF-539 CNS
# SK-MEL-2 melanoma = tested on: SK-MEL-2 melanoma
# SK-MEL-28 melanoma = tested on: SK-MEL-28 melanoma
# SK-MEL-5 melanoma = tested on: SK-MEL-5 melanoma
# SK-OV-3 ovarian = tested on: SK-OV-3 ovarian
# SN12C renal = tested on: SN12C renal
# SNB-19 CNS = tested on: SNB-19 CNS
# SR leukemia = tested on: SR leukemia
# SW-620 colon = tested on: SW-620 colon
# TK-10 renal = tested on: TK-10 renal
# U251 CNS = tested on: U251 CNS
# UACC-257 melanoma = tested on: UACC-257 melanoma
# UACC-62 melanoma = tested on: UACC-62 melanoma
# UO-31 renal = tested on: UO-31 renal
structure (smiles),measurement,setting,value
CC(C)(C)C1CCC2c3c([nH]c4ccccc34)C3C(=O)N(c4ccc(C(=O)O)cc4)C(=O)C3C2C1 (centres undefined),TGI,786-0 renal,29.1 µM
same,TGI,A498 renal,34.6 µM
same,TGI,A549 NSCLC,25.8 µM
same,TGI,ACHN renal,24.5 µM
same,TGI,BT-549 breast,30.1 µM
same,TGI,CAKI-1 renal,31 µM
same,TGI,CCRF-CEM leukemia,12.5 µM
same,TGI,COLO 205 colon,40.4 µM
same,TGI,DU-145 prostate,34.7 µM
same,TGI,EKVX NSCLC,39.7 µM
same,TGI,HCC-2998 colon,29 µM
same,TGI,HCT-116 colon,29.7 µM
same,TGI,HCT-15 colon,25 µM
same,TGI,HL-60(TB) leukemia,15.4 µM
same,TGI,HOP-62 NSCLC,15.8 µM
same,TGI,HOP-92 NSCLC,25.7 µM
same,TGI,HS 578T breast,39 µM
same,TGI,HT29 colon,28.7 µM
same,TGI,IGROV1 ovarian,40.1 µM
same,TGI,K-562 leukemia,17.9 µM
same,TGI,LOX IMVI melanoma,28.8 µM
same,TGI,M14 melanoma,37.3 µM
same,TGI,MALME-3M melanoma,28.9 µM
same,TGI,MCF7 breast,26.4 µM
same,TGI,MDA-MB-231 breast,29.2 µM
same,TGI,MDA-MB-435,11.1 µM
same,TGI,MDA-N,24.7 µM
same,TGI,NCI-H226 lung,40.3 µM
same,TGI,NCI-H23 lung,40.8 µM
same,TGI,NCI-H460 lung,35.4 µM
same,TGI,NCI-H522 lung,41.6 µM
same,TGI,NCI/ADR-RES ovarian,36 µM
same,TGI,OVCAR-3 ovarian,25.8 µM
same,TGI,OVCAR-5 ovarian,36.5 µM
same,TGI,OVCAR-8 ovarian,26.6 µM
same,TGI,PC-3 prostate,26.3 µM
same,TGI,RPMI-8226 leukemia,> 100 µM
same,TGI,RXF 393 renal,29.5 µM
same,TGI,SF-268 CNS,28.4 µM
same,TGI,SF-295 CNS,23.4 µM
same,TGI,SF-539 CNS,34.8 µM
same,TGI,SK-MEL-2 melanoma,29.1 µM
same,TGI,SK-MEL-28 melanoma,30.3 µM
same,TGI,SK-MEL-5 melanoma,25.7 µM
same,TGI,SK-OV-3 ovarian,32.1 µM
same,TGI,SN12C renal,25.6 µM
same,TGI,SNB-19 CNS,34.6 µM
same,TGI,SR leukemia,> 100 µM
same,TGI,SW-620 colon,26.5 µM
same,TGI,TK-10 renal,31.3 µM
same,TGI,U251 CNS,26.2 µM
same,TGI,UACC-257 melanoma,28.3 µM
same,TGI,UACC-62 melanoma,30.4 µM
same,TGI,UO-31 renal,30.4 µM
